Assay results as given in patent US20130302497A1, “Taste Enhancement” (Givaudan S.A., priority 2010, published 2013).

Test: Expert panel taste evaluation (umami/salty) in chicken broth with or without added choline chloride
Format: in vivo
Settings: for Taste description, with choline added: choline chloride 7 ppm final concentration; for Taste description, material alone: without choline chloride
Description: The materials described below were evaluated at the concentration specified by an expert panel in a chicken broth (commercial Swanson chicken broth, with no MSG added, 50% reduced sodium 430 mg/serving) with or without added choline chloride (7 ppm final concentration).

[1] = 10 ppm in Swanson chicken broth, no MSG added, 50% reduced sodium

SMILES	Taste description, with choline added (1 ppm in chicken broth)	Taste description, material alone (1 ppm in chicken broth)	Taste description, material alone [1]	Taste description, with choline added (10 ppm in chicken broth)	other results
CC(C)COc1ccc(C(=O)CCc2ccccn2)c(O)c1 [1-(2-hydroxy-4-isobutoxyphenyl)-3-(pyridine-2-yl)propan-1-one]	enhanced the saltiness and umami character with a well rounded taste profile	Salty and umami	–	–	–
Cc1cc(O)c(C(=O)CCc2ccccn2)cc1C [1-(2-hydroxy-4,5-dimethylphenyl)-3-(pyridin-2-yl)propan-1-one]	–	–	Weak umami	Better, stronger umami, saltier	–
CCCCCOc1ccc(C(=O)CCc2ccccn2)c(O)c1 [1-(2-hydroxy-4-(pentyloxy)phenyl)-3-(pyridine-2-yl)propan-1-one]	enhanced the saltiness and umami character with a well rounded taste profile	salty and umami	–	–	–
COc1ccc(C(=O)CCc2ccccn2)c(O)c1 [1-(2-hydroxy-4-methoxyphenyl)-3-(pyridin-2-yl)propan-1-one]	–	–	Umami, lingering, body	enhancement of umami, enhancement of saltiness	–
COc1cc(C)ccc1CNC(=O)C(=O)NCCc1ccccn1 [N-(2-methoxy-4-methylbenzyl)-N′-(2-(pyridin-2-yl)ethyl)oxalamide]	–	–	–	–	Taste description, with choline added (0.5 ppm in chicken broth): more lingering umami, kokumi; Taste description, material alone (0.5 ppm in chicken broth): lingering umami
CC(C)=CCC/C(C)=C/CNC(=O)C1CC1 [(E)-N-(3,7-dimethylocta-2,6-dienyl)cyclopropanecarboxamide]	–	–	–	–	Taste description, with choline added (2 ppm in chicken broth): Very full, more salty, umami; Taste description, material alone (2 ppm in chicken broth): Umami, salty, not good aftertaste
